From patent US9611223B2, “3-aryl-5-substituted-isoquinolin-1-one compounds and their therapeutic use” (INSTITUTE OF CANCER RESEARCH: ROYAL CANCER HOSPITAL (THE), priority 2013, dated 2017)
Values joined by “and” are separate entries in the source; they are usually repeats but may differ in a detail not shown here. Identical values can stand only once. Like-named read-outs stand apart in the source and are kept apart here.

Legend:
COLO320DM cells = experiment: Tumour Cell Inhibition Assay (COLO320DM cells); assay type: cell-based; conditions: Homo sapiens, COLO 320DM, 120 h, five day exposure
Protocol: Tumour Cell Inhibition in Colorectal Tumour Cells
In order to determine the efficacy of acute dosing of putative TNKS inhibitors, five day exposure cell viability assays were carried out. This included the sparse seeding of cells in a 96-well plate followed by continuous dosing of cells over a five day period.
Appropriate cell lines (HT55, COLO320DM and SW620) were seeded at 500 cells/well in a 96-well plate in MEM (HT55), RPMI (COLO320DM) or DMEM (SW620) supplemented with FBS. After overnight incubation, cells were treated with the appropriate putative TNKS inhibitor in 6 or 10 concentrations ranging from 0 μM to 10 μM at 0.2% final DMSO concentration in appropriate media supplemented with 10% or 0.5% FBS. Dosages were carried out in triplicate. Termination of the assay and measurement of cell viability was achieved by the use of Cell Titre Glo reagent and luminescence measurement on an appropriate plate reader.
Dose response curves used to determine SF50 values were Log transformed and analysed by non-linear regression analysis (variable slope) using Prism (GraphPad Software, Inc).

TNKS1 = target: T1, TNKS1 (Homo sapiens, UniProt O95271, M1266I); experiment: TNKS1/PARP Biochemical Assay
T1 construct: expresses the active PARP domain of TNKS1 as a polyhistidine tagged protein; made in house; host or cells: E. coli Rosetta2(DE3)
Protocol: TNKS1/PARP Biochemical Assay
Tankyrase activity was assayed using a 96-well format HT Universal Chemiluminescent PARP Assay Kit (Trevigen, Inc, cat. no. 4676-096-K) according to the manufacturer's instructions. In short, tankyrase/PARP activity is quantified by the incorporation of biotinylated nicotinamide adenine dinucleotide (biotin-NAD^+) onto the immobilised pseudo substrate, Histone. The extent of poly(Biotin-ADP)ribosylation (PARylation) in the presence of increasing dose of inhibitor is then quantified by binding of streptavidin conjugated horse radish peroxidase (strep-HRP) followed by chemiluminescent detection.
Prior to assay initiation, inhibitor stocks were prepared in aqueous DMSO (10% (v/v)) from 5 millimolar (mM) stock in 100% DMSO (Sigma Aldrich, cat. no. 265855) as 10× concentrations. For the primary assay (i.e., single dose at 1 micromolar (μM) final concentration) this corresponded to 10 μM in 10% DMSO. For IC50 determination, this corresponded to 100 μM, 30 μM, 10 μM, 3.0 μM, 1.0 μM, 0.30 μM, 0.10 μM and 0 μM in 10% DMSO for final concentrations of 10 μM, 3.0 μM, 1.0 μM, 0.30 μM, 0.10 μM, 0.030 μM, 0.010 μM, and 0 μM with 1% (v/v) final DMSO. The assay was initiated by the addition of 10× inhibitor (5 microliters (μL)) or 10% aqueous DMSO (5 μL) to triplicate wells. Twenty microliters of diluted TNKS1 protein (200 nanomolar (nM) final conc.) in PARP buffer (Trevigen, Inc, cat. no. 4671-096-02) was added to each histone coated well, which was previously hydrated with PARP buffer. Triplicate wells with 1% DMSO/buffer alone (no enzyme) were also added as a measure of assay ‘noise’. Positive control for PARP inhibition included the addition of 4-amino-1,8-naphthalimide (Sigma Aldrich, cat. no A0966) in corresponding doses.
The mixture was incubated for 10 minutes at room temperature and the PARylation reaction initiated by the addition of PARP cocktail (25 μL, Trevigen, Inc) containing biotin-NAD^+ (Trevigen, Inc, cat. no. 4670-500-01), activated DNA (Trevigen, Inc, cat. no. 4671-096-06) and PARP buffer. The reaction was incubated for 1.5 hours (for TNKS1) or 1 hour (for PARP1) at room temperature. The reaction mixture was then removed by aspiration and the wells washed (3×200 μL) with phosphate buffered saline containing Triton X-100 (0.1% (v/v), Sigma Aldrich cat. no. T8787). The wells were then washed (3×200 μL) with phosphate buffered saline and then incubated with strep-HRP (50 μL, Trevigen, Inc, cat. no. 4800-30-06) in strep-diluent (1:500 dilution, Trevigen Inc, cat. no. 4671-096-04) for 1 hour at room temperature. The Strep-HRP mixture was then aspirated and the wells washed (3×200 μL) with phosphate buffered saline containing Triton X-100 (0.1% (v/v)) followed by phosphate buffered saline (3×200 μL) and then incubated with PeroxyGlow™ reagent (100 μL, Trevigen, Inc, cat. nos. 4675-096-01, 4675-096-02, room temperature, mixed 1:1).
The amount of light emitted as a result of the peroxidase-chemiluminescent reagent reaction was in proportion to the extent of poly(Biotin-ADP)ribosylation and was immediately measured with a Victor^2 plate reader (Perkin Elmer, luminescence detection assay, luminescent units described as ‘Counts Per Second’ (CPS)). The data were normalised to the DMSO control after subtraction of ‘noise’ and was expressed as % PARP activity as a function of inhibitor dose. Inhibition was expressed as 100%−(% PARP activity). Dose response curves used to determine IC50 values were Log transformed and analysed by non-linear regression analysis (variable slope) using Prism (GraphPad Software, Inc) and were presented as IC50 with 95% confidence interval to determine relative potency.
Tankyrase1 (pNIC-Bsa4-TNKS1^PARP) expression construct was obtained from the Structural Genomics Consortium (SGC) and expresses the active PARP domain of TNKS1 as a polyhistidine tagged protein. […]

[1] = read-out: cell inhibitory SF50 (COLO320DM)

T1 sequence (O95271 1112-1317 M1266I): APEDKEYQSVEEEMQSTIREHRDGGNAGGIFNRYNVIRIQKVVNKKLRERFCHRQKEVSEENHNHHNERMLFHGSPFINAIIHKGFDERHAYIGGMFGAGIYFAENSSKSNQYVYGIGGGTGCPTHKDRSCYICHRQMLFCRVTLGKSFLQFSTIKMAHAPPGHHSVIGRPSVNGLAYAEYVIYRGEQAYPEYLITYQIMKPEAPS

| IC50 (COLO320DM cells; [1]) [nM] | IC50 (TNKS1) | IC50 (COLO320DM cells; replicate, read-out: cell inhibitory SF50 (COLO320DM), replicate) [nM] | Compound |
| --- | --- | --- | --- |
| < 5000 | < 50 nM | – | COCc1ccn(Cc2ccc(-c3cc4c(C#N)cccc4c(=O)[nH]3)cc2)n1 [IQ-033] |
| < 5000 | < 50 nM | – | Cc1nnc(N(C)Cc2ccc(-c3cc4c(C#N)cccc4c(=O)[nH]3)cc2)o1 [IQ-042] |
| – | < 100 nM | – | COCc1ccnn1Cc1ccc(-c2cc3c(C#N)cccc3c(=O)[nH]2)cc1 [IQ-031] |
| < 5000 | < 50 nM | – | Cc1nnc(N2CCCN(Cc3ccc(-c4cc5c(C#N)cccc5c(=O)[nH]4)cc3)CC2)o1 [IQ-049] |
| – | < 50 nM | – | Cc1nnc(N2CCN(C(C)c3ccc(-c4cc5c(C#N)cccc5c(=O)[nH]4)cc3)CC2)o1 (centres unmarked) [IQ-032] |
| – | < 50 nM | – | CC(c1ccc(-c2cc3c(C#N)cccc3c(=O)[nH]2)cn1)n1ccnc1 (centres unmarked) [IQ-034] |
| < 5000 | < 50 nM | – | Cc1nnc(N2CCN(Cc3ccc(-c4cc5c(C#N)cccc5c(=O)[nH]4)cc3)CC2)o1 [IQ-020] |
| < 5000 | – | – | CC(C)(C)OC(=O)N1CCN(c2ccc(-c3cc4c(C#N)cccc4c(=O)[nH]3)cn2)CC1 [IQ-051] |
| – | < 50 nM | – | CCc1nnc(N2CCN(Cc3ccc(-c4cc5c(C#N)cccc5c(=O)[nH]4)cc3)CC2)o1 [IQ-044] |
| < 5000 | < 50 nM | – | Cc1nnc(N2CCCN(c3ccc(-c4cc5c(C#N)cccc5c(=O)[nH]4)cc3)CC2)o1 [IQ-059, 3-{4-[4-(5-Methyl-[1,3,4]oxadiazol-2-yl)-[1,4]diazepan-1-yl]-phenyl}-1-oxo-1,2-dihydro-isoquinoline-5-carbonitrile] |
| – | < 50 nM | – | CC(c1ccc(-c2cc3c(C#N)cccc3c(=O)[nH]2)cc1)N1CC(O)C1 (centres unmarked) [IQ-009, 3-{4-[1-(3-Hydroxy-azetidin-1-yl)-ethyl]-phenyl}-1-oxo-1,2-dihydro-isoquinoline-5-carbonitrile] |
| – | < 100 nM | – | COCCN(CCOC)C(=O)c1ccc(-c2cc3c(C#N)cccc3c(=O)[nH]2)cc1 [IQ-008] |
| – | < 50 nM | – | CC(C)c1nnc(N2CCN(Cc3ccc(-c4cc5c(C#N)cccc5c(=O)[nH]4)cc3)CC2)o1 [IQ-019] |
| – | < 50 nM | – | N#Cc1cccc2c(=O)[nH]c(-c3ccc(C(=O)N(CCO)CCO)cc3)cc12 [IQ-010, 4-(5-Cyano-1-oxo-1,2-dihydro-isoquinolin-3-yl)-N,N-bis-(2-hydroxy-ethyl)-benzamide] |
| < 5000 | < 50 nM | – | Cc1nnc(N2CCN(Cc3ccc(-c4cc5c(C#N)cc(F)cc5c(=O)[nH]4)cc3)CC2)o1 [IQ-039] |
| – | < 50 nM | – | Cc1nnc(N2CCN(c3ccc(-c4cc5c(C#N)cccc5c(=O)[nH]4)cc3)CC2)o1 [IQ-055, 3-{4-[4-(5-Methyl-[1,3,4]oxadiazol-2-yl)piperazin-1-yl]phenyl}-1-oxo-1,2-dihydroisoquinoline-5-carbonitrile] |
| < 5000 | < 50 nM | – | CC(c1ccc(-c2cc3c(C#N)cccc3c(=O)[nH]2)cc1)n1ccnc1CO (centres unmarked) [IQ-038] |

| IC50 (COLO320DM cells; [1]) [nM] | IC50 (TNKS1) | IC50 (COLO320DM cells; replicate, read-out: cell inhibitory SF50 (COLO320DM), replicate) [nM] | Compound |
| --- | --- | --- | --- |
| – | < 50 nM | – | CC(c1ccc(-c2cc3c(C#N)cccc3c(=O)[nH]2)cc1)n1ccnc1 (centres unmarked) [IQ-029] |
| < 5000 | < 50 nM | – | CN(C(=O)c1ccc(-c2cc3c(C#N)cccc3c(=O)[nH]2)cc1)C1CCN(CC2CC2)CC1 [IQ-006] |
| < 5000 | < 100 nM | – | Cc1nnc(N2CCN(Cc3ccc(-c4cc5c(C#N)cccc5c(=O)[nH]4)cc3)C(C)C2)o1 (centres unmarked) [IQ-040] |
| < 5000 | – | – | CC(C)(C)OC(=O)N1CCN(Cc2ccc(-c3cc4c(C#N)cccc4c(=O)[nH]3)cc2)CC1 [IQ-046] |
| – | < 50 nM | – | COCc1nccn1Cc1ccc(-c2cc3c(C#N)cccc3c(=O)[nH]2)cc1 [IQ-017] |
| – | < 100 nM | – | Cc1nnc(N2CCN(Cc3ccc(-c4cc5c(C#N)cccc5c(=O)[nH]4)cc3)CC2(C)C)o1 [IQ-058] |
| – | < 100 nM | – | N#Cc1cccc2c(=O)[nH]c(-c3ccc(CN)cc3)cc12 [IQ-043] |
| – | < 50 nM | – | Cc1nnc(N2CCN(Cc3ccc(-c4cc5c(CN)cccc5c(=O)[nH]4)cc3)CC2)o1 [IQ-022] |
| < 5000 | < 50 nM | – | COCc1nccn1C(C)c1ccc(-c2cc3c(C#N)cccc3c(=O)[nH]2)cc1 (centres unmarked) [IQ-028] |
| < 5000 | < 50 nM | – | Cc1nnc(N2CCN(Cc3ccc(-c4cc5c(C#N)cccc5c(=O)[nH]4)cc3)C(C)(C)C2)o1 [IQ-057] |
| < 5000 | < 50 nM | – | Cc1nnc(N2CCN(Cc3ccc(-c4cc5c(C#N)cccc5c(=O)[nH]4)cc3)CC2C)o1 (centres unmarked) [IQ-056] |
| < 5000 | < 50 nM | – | CN(C)Cc1nccn1Cc1ccc(-c2cc3c(C#N)cccc3c(=O)[nH]2)cc1 [IQ-016] |
| < 5000 | < 50 nM | – | Cc1nnc(N(C)C2CN(Cc3ccc(-c4cc5c(C#N)cccc5c(=O)[nH]4)cc3)C2)o1 [IQ-047] |
| – | < 50 nM | – | COCc1nccn1Cc1ccc(-c2cc3c(CN)cccc3c(=O)[nH]2)cc1 [IQ-023, 5-Aminomethyl-3-[4-(2-methoxymethyl-imidazol-1-ylmethyl)-phenyl]-2H-isoquinolin-1-one] |
| < 5000 | – | – | CN(C)Cc1cccc2c(=O)[nH]c(-c3ccc(CN4CCN(C)CC4)cc3)cc12 [IQ-024, 5-Dimethylaminomethyl-3-[4-(4-methyl-piperazin-1-ylmethyl)-phenyl]-2H-isoquinolin-1-one] |
| < 5000 | < 50 nM | – | N#Cc1cccc2c(=O)[nH]c(-c3ccc(Cn4ccnn4)cc3)cc12 [IQ-030] |
| – | < 100 nM and < 50 nM and 18 nM | 1120 | Cc1nccn1Cc1ccc(-c2cc3c(C#N)cccc3c(=O)[nH]2)cc1 [IQ-013] |
